Assay results as given in patent publication US20100111859A1, “Visualization of Biological Material by the Use of Coated Contrast Agents” (priority 2007, published 2010).

Assay: MRI measurements of relaxation rates and relaxivities
Format: physicochemical
Conditions: for r1: relaxivity, MRI measurement
Text: MRI measurements: See Engström et al., Magn Reson Mater Phy, 19 (2006) 180-186.
Commercially available and clinically used Gd^3+-DPTA has under the same conditions lower values for 1/T1 and 1/T2 (e.g. 1/T1=0.005 ms^−1). Variations in relaxivities (r1 and r2) and in the relaxivity ratio (r2/r1) are illustrated by: […]

1/T1 (1 mM) (relaxation rate at 1 mM Gd) | 1/T2 (relaxation rate, result in words) | Structure (SMILES) | r1
 |  | [Cl][Gd]([Cl])[Cl] [Gd^3+ (GDCl3)] | 10.5 mM⁻¹ s⁻¹
0.005 ms^−1 | lower | O=C([O-])CN(CCN(CC(=O)[O-])CC(=O)O)CCN(CC(=O)[O-])CC(=O)O.[Gd+3] [Gd^3+-DTPA] | 4.1 mM⁻¹ s⁻¹
